What all share (experiment): NCI60 five-dose screen
Type in all cases: cell-based

The test system of one assay is NCI-H522. Particulars: Homo sapiens; NCI-H522, Non-small-Cell Lung Cancer. The gist of the method: (§1)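 Antiproliferative effect is reported as GI50, from SRB-stained cellular protein (515 nm) after 48 h with compound. Dosing used five concentrations; time-zero plates fixed at drug addition served as baseline.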
For the next assay, the system named is SK-MEL-5. Particulars: Homo sapiens; SK-MEL-5, Melanoma. The gist of the method: as §1
The subject of a further assay is EKVX. Particulars: Homo sapiens, Non-small-Cell Lung Cancer. In short, it runs like this:
as §1

In the next assay the test system is HOP-92. Particulars: Homo sapiens; HOP-92, Non-small-Cell Lung Cancer. In short, it runs like this:
as §1

A further assay concerns SN12C. Particulars: Homo sapiens, Renal Cancer. The gist of the method: as §1
The test system of another assay is HCC-2998. Particulars: Homo sapiens; HCC-2998, Colon Cancer. In short, it runs like this: as §1
In a further assay the test system is NCI-H460. Particulars: Homo sapiens; NCI-H460, Non-small-Cell Lung Cancer. The gist of the method: as §1
For another assay, the system named is MCF7. Particulars: Homo sapiens; MCF7, Breast Cancer. The gist of the method:
as §1

For another assay, the system named is IGROV1. Particulars: Homo sapiens, IGROV-1; IGROV1, Ovarian Cancer. The gist of the method:
as §1

In another assay the test system is COLO 205. Particulars: Homo sapiens; COLO 205, Colon Cancer. In short, it runs like this:
as §1

A further assay deals with PC-3. Particulars: Homo sapiens; PC-3, Prostate Cancer. In short, it runs like this: as §1
The subject of the next assay is UACC-257. Particulars: Homo sapiens; UACC-257, Melanoma. In short, it runs like this: as §1
The next assay concerns OVCAR-4. Particulars: Homo sapiens; OVCAR-4, Ovarian Cancer. In short, it runs like this:
as §1

For the next assay, the system named is SR. Particulars: Homo sapiens, Leukemia. The gist of the method:
as §1

Another assay concerns ACHN. Particulars: Homo sapiens, Renal Cancer. In short, it runs like this: as §1
The subject of another assay is HCT-116. Particulars: Homo sapiens; HCT-116, Colon Cancer. The gist of the method: as §1

This is an account of results in paper PMC12652692, “Synthesis and In Vitro Anticancer Evaluation of Novel Phosphonium Derivatives of Chrysin” (International Journal of Molecular Sciences, 2025).

Usually GI50 stands for the concentration at which growth is held to half of that of the control. Consider `O=c1cc(-c2ccccc2)oc2cc(OCCCC[P+](c3ccccc3)(c3ccccc3)c3ccccc3)cc(O)c12` [3a], for which the GI50 in the assay on NCI-H522 stood at 228 nM; in the assay on SK-MEL-5, 166 nM; with EKVX, 317 nM; in the assay with HOP-92, 234 nM; in the assay with SN12C, 330 nM; with HCC-2998 it was 345 nM. For the same compound, the GI50 with NCI-H460 was 321 nM; in the assay with MCF7 it was 291 nM; in the assay with IGROV1 it was 405 nM; in the assay with COLO 205, 1020 nM; in the assay on PC-3, 305 nM; in the assay with UACC-257, 282 nM. Moreover, the 50% growth inhibitory concentration (GI50) was found to be 370 nM in the assay with OVCAR-4, 289 nM in the assay with SR, 633 nM with ACHN and 297 nM in the assay on HCT-116.
For the compound `Cc1ccc([P+](CCCCOc2cc(O)c3c(=O)cc(-c4ccccc4)oc3c2)(c2ccc(C)cc2)c2ccc(C)cc2)cc1` [3b], the GI50 in the assay on NCI-H522 turned out to be 274 nM; in the assay with SK-MEL-5 it was 153 nM; with EKVX it was 275 nM; with HOP-92, 163 nM; in the assay on SN12C, 389 nM; in the assay on HCC-2998, 380 nM. Besides, the concentration for 50% growth inhibition (GI50) was 357 nM in the assay on NCI-H460; 268 nM in the assay with MCF7; 416 nM with IGROV1; 419 nM with COLO 205; 182 nM with PC-3; 367 nM in the assay on UACC-257. The concentration for 50% growth inhibition (GI50) was found to be 247 nM in the assay with OVCAR-4, 261 nM with SR, 265 nM in the assay on ACHN and 248 nM in the assay on HCT-116.
Take `COc1ccc([P+](CCCCOc2cc(O)c3c(=O)cc(-c4ccccc4)oc3c2)(c2ccc(OC)cc2)c2ccc(OC)cc2)cc1` [3c]: the 50% growth inhibitory concentration (GI50) in the assay with NCI-H522 worked out at 405 nM; with SK-MEL-5, 331 nM; in the assay with EKVX, 462 nM; in the assay on HOP-92, 252 nM; with SN12C, 317 nM; with HCC-2998 it was 300 nM. For the same compound, the GI50 with NCI-H460 came out at 371 nM; with MCF7 it was 407 nM; in the assay with IGROV1 it was 413 nM; in the assay with COLO 205 it was 455 nM; in the assay with PC-3 it was 320 nM; in the assay on UACC-257 it was 277 nM. Further, the GI50 in the assay with OVCAR-4 was 382 nM; with SR, 300 nM; in the assay on ACHN it was 1280 nM; in the assay with HCT-116 it was 337 nM.
For the compound `O=c1cc(-c2ccccc2)oc2cc(OCCCC[P+](c3ccc(F)cc3)(c3ccc(F)cc3)c3ccc(F)cc3)cc(O)c12` [3d], the concentration for 50% growth inhibition (GI50) in the assay on NCI-H522 was 1820 nM; with SK-MEL-5, 1510 nM; with EKVX, 2230 nM; with HOP-92, 1320 nM; in the assay with SN12C it was 2490 nM; in the assay on HCC-2998 it was 1670 nM. In addition, the GI50 turned out to be 2130 nM in the assay on NCI-H460; 1620 nM with MCF7; 1890 nM with IGROV1; 1620 nM in the assay on COLO 205; 1760 nM with PC-3; 1660 nM in the assay on UACC-257. Further, the 50% growth inhibitory concentration (GI50) in the assay with OVCAR-4 came out at 1640 nM; in the assay on SR it was 1990 nM; with ACHN, 3230 nM; in the assay with HCT-116 it was 1670 nM.
As to `O=c1cc(-c2ccccc2)oc2cc(OCCCC[P+](C3CCCCC3)(C3CCCCC3)C3CCCCC3)cc(O)c12` [3e], the 50% growth inhibitory concentration (GI50) in the assay on NCI-H522 stood at 457 nM; with SK-MEL-5, 369 nM; in the assay with EKVX it was 1060 nM; in the assay on HOP-92 it was 211 nM; in the assay with SN12C, 509 nM; in the assay with HCC-2998 it was 504 nM. Further, the concentration for 50% growth inhibition (GI50) came to 957 nM in the assay on NCI-H460; 956 nM with MCF7; 774 nM in the assay with IGROV1; 812 nM with COLO 205; 501 nM in the assay on PC-3; 267 nM in the assay with UACC-257. In addition, the concentration for 50% growth inhibition (GI50) in the assay with OVCAR-4 turned out to be 686 nM; in the assay on SR, 260 nM; in the assay with ACHN it was 1520 nM; in the assay with HCT-116 it was 882 nM.
Turning to `COc1c(C)cc([P+](CCCCOc2cc(O)c3c(=O)cc(-c4ccccc4)oc3c2)(c2cc(C)c(OC)c(C)c2)c2cc(C)c(OC)c(C)c2)cc1C` [3f], the GI50 in the assay with NCI-H522 is 221 nM; in the assay with SK-MEL-5, 168 nM; in the assay with EKVX it was 309 nM; in the assay on HOP-92, 165 nM; with SN12C, 313 nM; in the assay with HCC-2998, 297 nM. The GI50 with NCI-H460 was 304 nM; in the assay with MCF7, 260 nM; in the assay on IGROV1, 346 nM; with COLO 205, 791 nM; with PC-3, 276 nM; in the assay on UACC-257, 298 nM. In addition, the 50% growth inhibitory concentration (GI50) with OVCAR-4 was 351 nM; with SR, 162 nM; with ACHN, 371 nM; in the assay on HCT-116 it was 256 nM.
For the compound `Cc1ccccc1[P+](CCCCOc1cc(O)c2c(=O)cc(-c3ccccc3)oc2c1)(c1ccccc1C)c1ccccc1C` [3g], the concentration for 50% growth inhibition (GI50) in the assay on NCI-H522 was determined as 341 nM; in the assay on SK-MEL-5, 198 nM; in the assay with HOP-92 it was 255 nM; with SN12C it was 230 nM; in the assay on HCC-2998 it was 239 nM; in the assay with NCI-H460 it was 243 nM. Further, the 50% growth inhibitory concentration (GI50) with MCF7 came out at 267 nM; in the assay on IGROV1, 428 nM; in the assay with COLO 205, 351 nM; in the assay on PC-3, 308 nM; in the assay on UACC-257, 261 nM; in the assay with OVCAR-4, 429 nM. Besides, the results for the GI50 in the assay with SR, in the assay on ACHN and in the assay on HCT-116 were 206 nM, 569 nM and 265 nM, respectively.
As for `O=c1cc(-c2ccccc2)oc2cc(OCCCC[P+](c3ccccc3)(c3ccccc3)c3ccccn3)cc(O)c12` [3h], the 50% growth inhibitory concentration (GI50) with NCI-H522 was determined as 320 nM; in the assay on SK-MEL-5 it was 278 nM; with EKVX, 1120 nM; in the assay on HOP-92, 346 nM; in the assay on SN12C it was 510 nM; in the assay with HCC-2998, 445 nM. The GI50 was found to be 801 nM in the assay with NCI-H460; 396 nM in the assay with MCF7; 653 nM in the assay on IGROV1; 1640 nM in the assay with COLO 205; 572 nM in the assay on PC-3; 298 nM in the assay on UACC-257. Also, the 50% growth inhibitory concentration (GI50) in the assay with OVCAR-4 worked out at 1140 nM; in the assay with SR, 214 nM; with ACHN, 1640 nM; with HCT-116, 650 nM.
